In US20060069132A1, “Azolecarboxamide herbicides” (priority 2004, published 2006):

Experiments:
barnyardgrass [1] = experiment: Test B pre-/postemergence herbicide test; assay type: in vivo, Echinochloa crus-galli; conditions: for Plant response rating (0 to 100 scale), Barnyardgrass: 0 is no effect, preemergence
Method in brief: (§1)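 Greenhouse pot assay with simultaneous preemergence (treated seed) and postemergence (2–18 cm seedlings) applications of surfactant-containing, non-phytotoxic solvent formulations. Response scored visually 13–15 days later on a 0–100 scale, 100 meaning complete control.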

Surinam grass = experiment: Test B pre-/postemergence herbicide test; assay type: in vivo, Urochloa decumbens; conditions: for Plant response rating (0 to 100 scale), Surinam Grass: 0 is no effect, 100 is complete control, preemergence
Method in brief: (§2)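 Pre: seeds sown, then sprayed. Post: 1–4-leaf plants (2–18 cm) sprayed at the same time. Paddy: flooded, treated at 2-leaf stage. Formulation: non-phytotoxic solvent with surfactant. Greenhouse 13–15 days; visual 0–100 score relative to controls.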

cocklebur = experiment: Test B pre-/postemergence herbicide test; assay type: in vivo, Xanthium strumarium; conditions: for Plant response rating (0 to 100 scale), Cocklebur: 0 is no effect, preemergence
Method in brief: as §1

corn = experiment: Test B pre-/postemergence herbicide test; assay type: in vivo, Zea mays; conditions: for Plant response rating (0 to 100 scale), Corn: 0 is no effect, preemergence
Method in brief: as §2

large crabgrass = experiment: Test B pre-/postemergence herbicide test; assay type: in vivo, Digitaria sanguinalis
Method in brief: as §2

giant foxtail = experiment: Test B pre-/postemergence herbicide test; assay type: in vivo, Setaria faberi; conditions: for Plant response rating (0 to 100 scale), Foxtail, Giant: 0 is no effect, preemergence
Method in brief: as §2

lambsquarters = experiment: Test B pre-/postemergence herbicide test; assay type: in vivo, Chenopodium album; conditions: for Plant response rating (0 to 100 scale), Lambsquarters: 0 is no effect, 100 is complete control, preemergence; for Lambsquarters plant response rating: scale 0 (no effect) to 100 (complete control)
Method in brief: as §2

morningglory = experiment: Test B pre-/postemergence herbicide test; assay type: in vivo, Ipomoea coccinea; conditions: for Plant response rating (0 to 100 scale), Morningglory: 0 is no effect, 100 is complete control, preemergence
Method in brief: as §1

pigweed = experiment: Test B pre-/postemergence herbicide test; assay type: in vivo, Amaranthus retroflexus; conditions: for Plant response rating (0 to 100 scale), Pigweed: 0 is no effect, 100 is complete control, preemergence
Method in brief: as §2

velvetleaf = experiment: Test B pre-/postemergence herbicide test; assay type: in vivo, Abutilon theophrasti; conditions: for Plant response rating (0 to 100 scale), Velvetleaf: 0 is no effect, 100 is complete control, preemergence
Method in brief: as §2

blackgrass = experiment: Test B postemergence herbicide test; assay type: in vivo, Alopecurus myosuroides
Method in brief: (§3)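 Greenhouse test; postemergence application to plants at 1–4 leaves (2–18 cm); paddy species at 2 leaves; evaluated visually vs controls at 13–15 days; scale 0–100 (100 = complete control).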

wheat = experiment: Test B postemergence herbicide test; assay type: in vivo, Triticum aestivum; set-up: key to Wheat plant response rating: 0 = no effect, 100 = complete control
Method in brief: (§4)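 Postemergence plants were sprayed with formulated test chemicals at 2 to 18 cm height (1- to 4-leaf stage); paddy species were grown to the 2-leaf stage. After 13 to 15 days in a greenhouse, injury was rated visually against untreated controls on a 0–100 scale (0 = no effect, 100 = complete control).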

wild oat = experiment: Test B postemergence herbicide test; assay type: in vivo, Avena fatua
Method in brief: as §4

rice [2] = experiment: Test B flooded paddy test; assay type: in vivo, Oryza sativa; conditions: 1000 g ai/ha, scale 0 to 100 (0 no effect, 100 complete control)
Method in brief: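 Plants grow to 1- to 4-leaf stage (2–18 cm) for postemergence spraying, or to 2-leaf stage for the paddy test. Formulated compound is applied. Greenhouse holding lasts 13–15 days. Response is scored visually relative to controls, 0 no effect to 100 complete control; a dash means no result.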

[3] = test system: small flower umbrella sedge; experiment: Test B flooded paddy test; assay type: in vivo, Cyperus difformis; conditions: 1000 g ai/ha, scale 0 to 100 (0 no effect, 100 complete control)
Method in brief: as §3

ducksalad [4] = experiment: Test B flooded paddy test; assay type: in vivo, Heteranthera limosa; conditions: 1000 g ai/ha, scale 0 to 100 (0 no effect, 100 complete control)
Method in brief: as §3

barnyardgrass [5] = experiment: Test B flooded paddy test; assay type: in vivo, Echinochloa crus-galli; conditions: 1000 g ai/ha, scale 0 to 100 (0 no effect, 100 complete control)
Method in brief: as §3

rice [6] = experiment: Test C flooded paddy test; assay type: in vivo, Oryza sativa; conditions: for Plant response rating, Rice: 500 g ai/ha, visual rating after 12 to 14 days
Method in brief: (§5)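 Postemergence sprays applied to plants 2 to 18 cm tall (1- to 4-leaf stage); paddy species grown to 2-leaf stage under flooding. After 12 to 14 days in greenhouse, visual rating versus untreated controls on 0–100 scale (0 no effect, 100 complete control).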

[7] = test system: smallflower umbrella sedge; experiment: Test C flooded paddy test; assay type: in vivo, Cyperus difformis; conditions: for Plant response rating, Sedge, Umbrella: 500 g ai/ha, visual rating after 12 to 14 days
ducksalad [8] = experiment: Test C flooded paddy test; assay type: in vivo, Heteranthera limosa; conditions: for Plant response rating, Ducksalad: 500 g ai/ha, visual rating after 12 to 14 days
barnyardgrass [9] = experiment: Test C flooded paddy test; assay type: in vivo, Echinochloa crus-galli; conditions: for Plant response rating, Barnyardgrass: 500 g ai/ha, visual rating after 12 to 14 days
Method in brief: as §5

[10] = 125 g ai/ha, 100 is complete control
[11] = 125 g ai/ha, visual rating, scale 0 (no effect) to 100 (complete control), postemergence
[12] = postemergence, 500 g ai/ha, scale 0 to 100, 0 is no effect, 100 is complete control
[13] = Postemergence, 500 g ai/ha, scale 0 (no effect) to 100 (complete control)
[14] = 500 g ai/ha, scale 0 to 100, 0 no effect, 100 complete control, preemergence
[15] = 125 g ai/ha, scale 0 to 100 (0 no effect, 100 complete control)
[16] = 250 g ai/ha, scale of 0 to 100, 0 is no effect, 100 is complete control
[17] = scale 0 to 100 (0 no effect, 100 complete control)
[18] = 62 g ai/ha, scale 0 to 100 (0 no effect, 100 complete control)
[19] = postemergence, 125 g ai/ha, scale 0 to 100

Cc1nn(C(C)(C)C)nc1C(=O)Nc1cc(C(=O)N(C)C)ccc1F [Compound 378]
40: Lambsquarters plant response rating (lambsquarters; 125 g ai/ha, visual rating, postemergence) | Pigweed plant response rating (pigweed; [11]) | Velvetleaf plant response rating (velvetleaf; [13])
10: Surinam Grass plant response rating (Surinam grass; [11]) | Corn plant response rating (corn; [12]) | Crabgrass, Large plant response rating (large crabgrass; [12]) | Velvetleaf plant response rating (velvetleaf; [11]) | Rice plant response rating (rice [6]; [15])
30: Plant response rating (0 to 100 scale), Barnyardgrass (barnyardgrass [1]; [10]) | Plant response rating (0 to 100 scale), Corn (corn; [10]) | Plant response rating (0 to 100 scale), Foxtail, Giant (giant foxtail; [10]) | Foxtail, Giant plant response rating (giant foxtail; [12]) | Morningglory plant response rating (morningglory; [13]) | Rice plant response rating (rice [6]; [16])
60: Plant response rating, Rice (rice [6]; [17])
50: Plant response rating (0 to 100 scale), Velvetleaf (velvetleaf; 125 g ai/ha) | Plant response rating, Barnyardgrass (barnyardgrass [9]; [17])
0: Barnyardgrass plant response rating (barnyardgrass [1]; [11]) | Barnyardgrass plant response rating (barnyardgrass [1]; [12]) | Plant response rating (0 to 100 scale), Surinam Grass (Surinam grass; 125 g ai/ha) | Plant response rating (0 to 100 scale), Cocklebur (cocklebur; [10]) | Cocklebur plant response rating (cocklebur; [11]) | Cocklebur plant response rating (cocklebur; [12]) | Corn plant response rating (corn; [11]) | Crabgrass, Large plant response rating (large crabgrass; [11]) | Foxtail, Giant plant response rating (giant foxtail; [11]) | Plant response rating (0 to 100 scale), Morningglory (morningglory; 125 g ai/ha) | Blackgrass plant response rating (blackgrass; [11]) | Blackgrass plant response rating (blackgrass; [12]) | Wheat plant response rating (wheat; [11]) | Wheat plant response rating (wheat; [13]) | Oat, Wild plant response rating (wild oat; [11]) | Rice plant response rating (rice [6]; 62 g ai/ha, scale 0 to 100) | Sedge, Umbrella plant response rating ([7]; 62 g ai/ha, scale 0 to 100) | Ducksalad plant response rating (ducksalad [8]; 62 g ai/ha, scale 0 to 100) | Ducksalad plant response rating (ducksalad [8]; [15]) | Barnyardgrass plant response rating (barnyardgrass [9]; [18]) | Barnyardgrass plant response rating (barnyardgrass [9]; [15]) | Barnyardgrass plant response rating (barnyardgrass [9]; [16])
55: Sedge, Umbrella plant response rating [7, 16]
15: Sedge, Umbrella plant response rating [7, 15]
70: Lambsquarters plant response rating (lambsquarters; Postemergence, 500 g ai/ha) | Pigweed plant response rating (pigweed; [13]) | Rice plant response rating (rice [2])
20: Surinam Grass plant response rating (Surinam grass; [13]) | Morningglory plant response rating (morningglory; [11]) | Oat, Wild plant response rating (wild oat; [13]) | Ducksalad plant response rating (ducksalad [8]; [16])
90: Plant response rating (0 to 100 scale), Lambsquarters (lambsquarters; 125 g ai/ha) | Plant response rating (0 to 100 scale), Pigweed (pigweed; 125 g ai/ha) | Ducksalad plant response rating (ducksalad [4])
100: Wheat plant response rating (wheat; [14])
75: Plant response rating, Ducksalad (ducksalad [8]; [17])
80: Sedge, Umbrella plant response rating [3] | Barnyardgrass plant response rating (barnyardgrass [5]) | Plant response rating, Sedge, Umbrella [7, 17]

CCN(C)C(=O)c1cccc(NC(=O)c2nn(C(C)C)nc2C)c1 [Compound 407]
0: Barnyardgrass plant response rating (barnyardgrass [1]; Postemergence, 125 g ai/ha, scale 0 (no effect) to 100 (complete control)) | Surinam Grass plant response rating (Surinam grass; [19]) | Plant response rating (0 to 100 scale), Corn (corn; [10]) | Blackgrass plant response rating (blackgrass; [19]) | Wheat plant response rating (wheat; [13]) | Wheat plant response rating (wheat; [19]) | Oat, Wild plant response rating (wild oat; [13]) | Oat, Wild plant response rating (wild oat; [19]) | Rice plant response rating (rice [6]; 62 g ai/ha, scale 0 to 100) | Rice plant response rating (rice [6]; [15]) | Barnyardgrass plant response rating (barnyardgrass [9]; [18]) | Barnyardgrass plant response rating (barnyardgrass [9]; [15]) | Barnyardgrass plant response rating (barnyardgrass [9]; [16])
20: Surinam Grass plant response rating (Surinam grass; [13]) | Cocklebur plant response rating (cocklebur; [13]) | Corn plant response rating (corn; [13]) | Crabgrass, Large plant response rating (large crabgrass; [13]) | Morningglory plant response rating (morningglory; [19]) | Velvetleaf plant response rating (velvetleaf; [13]) | Velvetleaf plant response rating (velvetleaf; [19]) | Blackgrass plant response rating (blackgrass; [13]) | Rice plant response rating (rice [6]; [16]) | Sedge, Umbrella plant response rating ([7]; 62 g ai/ha, scale 0 to 100) | Ducksalad plant response rating (ducksalad [8]; 62 g ai/ha, scale 0 to 100) | Plant response rating, Barnyardgrass (barnyardgrass [9]; [17])
50: Plant response rating (0 to 100 scale), Pigweed (pigweed; 125 g ai/ha) | Rice plant response rating (rice [2])
90: Sedge, Umbrella plant response rating [3]
60: Lambsquarters plant response rating (lambsquarters; Postemergence, 500 g ai/ha) | Morningglory plant response rating (morningglory; [13]) | Sedge, Umbrella plant response rating [7, 15]
75: Sedge, Umbrella plant response rating [7, 16] | Plant response rating, Sedge, Umbrella [7, 17]
10: Barnyardgrass plant response rating (barnyardgrass [1]; [13]) | Plant response rating (0 to 100 scale), Cocklebur (cocklebur; [10]) | Cocklebur plant response rating (cocklebur; [19]) | Corn plant response rating (corn; [19]) | Crabgrass, Large plant response rating (large crabgrass; [19]) | Foxtail, Giant plant response rating (giant foxtail; [19]) | Plant response rating (0 to 100 scale), Velvetleaf (velvetleaf; 125 g ai/ha)
30: Plant response rating (0 to 100 scale), Surinam Grass (Surinam grass; 125 g ai/ha) | Plant response rating (0 to 100 scale), Foxtail, Giant (giant foxtail; [10]) | Foxtail, Giant plant response rating (giant foxtail; [13]) | Plant response rating (0 to 100 scale), Morningglory (morningglory; 125 g ai/ha) | Pigweed plant response rating (pigweed; [19])
70: Wheat plant response rating (wheat; [14])
40: Plant response rating (0 to 100 scale), Barnyardgrass (barnyardgrass [1]; [10]) | Pigweed plant response rating (pigweed; [13]) | Plant response rating, Rice (rice [6]; [17]) | Ducksalad plant response rating (ducksalad [8]; [15]) | Ducksalad plant response rating (ducksalad [8]; [16]) | Plant response rating, Ducksalad (ducksalad [8]; [17])
80: Plant response rating (0 to 100 scale), Crabgrass, Large (large crabgrass; 125 g ai/ha, 0 is no effect, 100 is complete control, preemergence) | Plant response rating (0 to 100 scale), Lambsquarters (lambsquarters; 125 g ai/ha) | Ducksalad plant response rating (ducksalad [4]) | Barnyardgrass plant response rating (barnyardgrass [5])
